Key:
[1] = system: BH4 production in human peripheral blood mononuclear cells (PBMCs); test: hPBMC assay, inhibition of BH4 production by LC-MS (anti-CD3/anti-CD28 stimulated); type: cell-based; settings: PBMC, read-out: hPBMC IC50
[2] = target: SNAP-hSPR (sepiapterin reductase, SPR) (Homo sapiens, UniProt P35270); test: biochemical; type: binding; settings: terbium labelled SNAP-hSPR / SSZ labelled SNAP-EGFP; read-out: hTR-FRET IC50
Excerpt: TR-FRET Assay: A TR-FRET (homogeneous, time-resolved, fluorescence resonance energy transfer) assay was used to assess activity of compounds following standard assay conditions. […] Compounds were screened at different concentrations and IC50 values calculated.
Terbium labelled SNAP-hSPR and SSZ (sulfasalazine) labelled SNAP-EGFP were used as the protein pair in this assay. Compounds were screened at different concentrations, and 1050 and Kd values calculated.

[3] = system: BH4 levels in SK-N-BE (2) cells; test: SKN-N-BE (2) cellular assay, BH4 levels by LC-MS; type: cell-based; settings: Homo sapiens, SKNBE2, read-out: SK-N-BE(2) IC50, SK-N-BE (2) cells, BH4 levels by LC-MS

Sequence of SNAP-hSPR (sepiapterin reductase, SPR) (P35270 whole entry): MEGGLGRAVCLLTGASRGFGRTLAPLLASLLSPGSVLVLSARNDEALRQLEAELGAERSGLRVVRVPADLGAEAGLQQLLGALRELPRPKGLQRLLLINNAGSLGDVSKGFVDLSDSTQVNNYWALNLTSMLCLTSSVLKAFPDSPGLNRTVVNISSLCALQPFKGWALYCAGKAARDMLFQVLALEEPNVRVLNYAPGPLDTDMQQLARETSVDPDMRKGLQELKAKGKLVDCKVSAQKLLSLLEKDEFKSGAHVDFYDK

Row | SMILES | IC50 [1] | IC50 [2] | IC50 [3]
1 | Cc1c(C(=O)N2CCc3[nH]ncc3C2)cnn1-c1nn2cccc2c(=O)[nH]1 [Q-1932] | 2700 nM | 3 nM | –
2 | Cc1c(C(=O)N2CCC3(CCCC3=O)CC2)cnn1-c1nn2cccc2c(=O)[nH]1 [Q-1192] | 40 nM | 1 nM | –
3 | Cc1c(C(=O)N2CCC3(CC2)CC3C(=O)N2CCOCC2)cnn1-c1nn2cccc2c(=O)[nH]1 (stereo not drawn) [Q-1070] | 200 nM | 2 nM | –
4 | Cc1c(C(=O)N2CCC(C3(C#N)CCC3)CC2)cnn1-c1nc2c(c(=O)[nH]1)CCC2 [Q-1087] | 29 nM | 2 nM | –
5 | Cc1c(C(=O)N2CC(N3CC(C(F)(F)F)C3)C2)cnn1-c1nn2cccc2c(=O)[nH]1 [Q-1082] | 120 nM | 4 nM | –
6 | Cc1c(C(=O)N2C3CCC2CN(C2CC2)C3)cnn1-c1nn2cccc2c(=O)[nH]1 [Q-1094] | 99 nM | 1 nM | –
7 | Cc1c(C(=O)N2CCC(C(CCF)C(F)(F)F)CC2)cnn1-c1nn2cccc2c(=O)[nH]1 (stereo not drawn) [Q-1141] | 19 nM | 1 nM | –
8 | Cc1c(C(=O)N2CCN(c3nnc(-c4cccc(F)c4)o3)CC2)cnn1-c1nn2cccc2c(=O)[nH]1 [Q-1193] | 160 nM | 7 nM | –
9 | Cc1c(C(=O)N2CCC3(CCC3=O)CC2)cnn1-c1nn2cccc2c(=O)[nH]1 [Q-1209] | 920 nM | 1 nM | –
10 | Cc1c(C(=O)N2C3CCC2CN(C2CCC2)C3)cnn1-c1nn2cccc2c(=O)[nH]1 [Q-1114] | 24 nM | 1 nM | –
11 | Cc1c(C(=O)N2CCN(S(=O)(=O)c3ccc(C#N)cc3)CC2)cnn1-c1nn2cccc2c(=O)[nH]1 [Q-1838] | 170 nM | 1 nM | –
12 | Cc1c(C(=O)N2CCC(n3cccc3C#N)CC2)cnn1-c1nn2cccc2c(=O)[nH]1 [Q-1219] | 79 nM | 1 nM | –
13 | Cc1c(C(=O)N2CCC(C(=O)CCC(F)(F)F)CC2)cnn1-c1nn2cccc2c(=O)[nH]1 [Q-1227] | 14 nM | 1 nM | –
14 | Cc1c(C(=O)N2CCN(CC(F)(F)F)C3(CCC3)C2)cnn1-c1nn2cccc2c(=O)[nH]1 [Q-1200] | 150 nM | 1 nM | –
15 | Cc1c(C(=O)N2CCN(c3nc(-c4cccnc4)cs3)CC2)cnn1-c1nn2cccc2c(=O)[nH]1 [Q-1164] | 37 nM | 1 nM | –
16 | Cc1c(C(=O)N2CCN(c3nc(-c4ccc(F)nc4)cs3)CC2)cnn1-c1nn2cccc2c(=O)[nH]1 [Q-1180] | 47 nM | 2 nM | –
17 | Cc1c(C(=O)N2CCN(S(=O)(=O)c3cccc(Cl)c3)CC2)cnn1-c1nn2cccc2c(=O)[nH]1 [Q-1822] | 120 nM | 1 nM | –
18 | Cc1c(C(=O)N2CCN(S(=O)(=O)Cc3ccccc3)CC2)cnn1-c1nn2cccc2c(=O)[nH]1 [Q-1591] | 110 nM | 3 nM | –
19 | Cc1c(C(=O)N2CCC(n3cccc3C(F)(F)F)CC2)cnn1-c1nn2cccc2c(=O)[nH]1 [Q-1238] | 79 nM | 2 nM | –
20 | Cc1c(C(=O)N2CCN(C3CC3F)CC2)cnn1-c1nn2cccc2c(=O)[nH]1 (stereo not drawn) [Q-1249] | 46 nM | 2 nM | –
21 | Cc1c(C(=O)N2CC3CCCC(C2)C3=CC(F)(F)F)cnn1-c1nn2cccc2c(=O)[nH]1 [Q-1174] | 22 nM | 1 nM | –

Row | SMILES | IC50 [1] | IC50 [2] | IC50 [3]
22 | Cc1c(C(=O)N2CCN(c3ncc(-c4ccncc4)o3)CC2)cnn1-c1nn2cccc2c(=O)[nH]1 [Q-1161] | 310 nM | 3 nM | –
23 | Cc1c(C(=O)N2CC(c3ccnc(C(F)F)c3)C2)cnn1-c1nn2cccc2c(=O)[nH]1 [Q-2008] | 300 nM | 2 nM | –
24 | Cc1c(C(=O)N2CCN(c3ncc(-c4ccc(C(F)(F)F)cc4)o3)CC2)cnn1-c1nn2cccc2c(=O)[nH]1 [Q-1175] | 450 nM | 20 nM | –
25 | Cc1c(C(=O)N2CCC(c3nc(C#N)cs3)CC2)cnn1-c1nn2cccc2c(=O)[nH]1 [Q-1093] | 95 nM | 1 nM | –
26 | Cc1c(C(=O)N2CC3CC(C2)N3CC(F)(F)F)cnn1-c1nc2[nH]ccc2c(=O)[nH]1 [Q-1305] | 1200 nM | 100 nM | –
27 | Cc1c(C(=O)N2CCc3nc(-c4cccc(C(F)(F)F)c4)sc3C2)cnn1-c1nn2cccc2c(=O)[nH]1 [Q-1167] | 81 nM | 10 nM | –
28 | Cc1c(C(=O)N2CCC3(CC2)CC3C(=O)N2CCC2)cnn1-c1nc2c(c(=O)[nH]1)CCC2 (stereo not drawn) [Q-1089] | 350 nM | 3 nM | –
29 | Cc1c(C(=O)N2CCN(c3ncc(-c4cccc(C#N)c4)o3)CC2)cnn1-c1nn2cccc2c(=O)[nH]1 [Q-1212] | 13 nM | 1 nM | –
30 | Cc1c(C(=O)N2CCN(c3ncc(-c4ccnc(F)c4)s3)CC2)cnn1-c1nn2cccc2c(=O)[nH]1 [Q-1231] | 62 nM | 3 nM | –
31 | Cc1c(C(=O)N2CCN(c3nnc(-c4cccc(Cl)c4)o3)CC2)cnn1-c1nn2cccc2c(=O)[nH]1 [Q-1154] | 350 nM | 5 nM | –
32 | Cc1c(C(=O)N2CCC(c3nc(C#N)cs3)CC2)cnn1-c1nc2c(c(=O)[nH]1)CCC2 [Q-1104] | 110 nM | 3 nM | –
33 | Cc1c(C(=O)N2CCC(C(=O)C3CC3)CC2)cnn1-c1nn2cccc2c(=O)[nH]1 [Q-1208] | 61 nM | 1 nM | –
34 | Cc1c(C(=O)N2CCC(c3cccc(F)n3)CC2)cnn1-c1nn2cccc2c(=O)[nH]1 [Q-1117] | 20 nM | 1 nM | –
35 | Cc1cc(C)c(S(=O)(=O)N2CCN(C(=O)c3cnn(-c4nn5cccc5c(=O)[nH]4)c3C)CC2)c(C)c1 [Q-1820] | 94 nM | 1 nM | –
36 | Cc1c(C(=O)N2CCC(c3nc(-c4ccccc4)co3)CC2)cnn1-c1nc2c(c(=O)[nH]1)CCC2 [Q-1079] | 74 nM | 3 nM | –
37 | Cc1c(C(=O)N2CCN(c3ncc(-c4ccccc4F)o3)CC2)cnn1-c1nn2cccc2c(=O)[nH]1 [Q-1149] | 210 nM | 5 nM | –
38 | Cc1nn(-c2nn3cccc3c(=O)[nH]2)cc1C(=O)N1CCN(CC(F)(F)F)CC1 [Q-1125] | 100 nM | 6 nM | –
39 | Cc1c(C(=O)N2CCN(S(=O)(=O)c3ccc(Cl)s3)CC2)cnn1-c1nn2cccc2c(=O)[nH]1 [Q-1842] | 150 nM | 1 nM | –
40 | Cc1c(C(=O)N2CC(N3CCC(F)(F)C3)C2)nnn1-c1nn2cccc2c(=O)[nH]1 [Q-1185] | 110 nM | 1 nM | –
41 | Cc1c(C(=O)N2CCN(S(=O)(=O)c3cccnc3)CC2)cnn1-c1nn2cccc2c(=O)[nH]1 [Q-1857] | 150 nM | 1 nM | –
42 | Cc1c(C(=O)N2CC(c3ccc(F)nc3)C2)cnn1-c1nn2cccc2c(=O)[nH]1 [Q-1144] | 70 nM | 1 nM | –

Row | SMILES | IC50 [1] | IC50 [2] | IC50 [3]
43 | Cc1c(C(=O)N2CCC(C(C(F)F)C(F)(F)F)CC2)cnn1-c1nn2cccc2c(=O)[nH]1 (stereo not drawn) [Q-1131] | 27 nM | 1 nM | –
44 | Cc1c(C(=O)N2CC3(C2)CC(F)(F)C3)cnn1-c1nc2[nH]ccc2c(=O)[nH]1 [Q-1263] | 370 nM | 100 nM | –
45 | Cc1c(C(=O)N2CCN(S(=O)(=O)c3cccc4cccnc34)CC2)cnn1-c1nn2cccc2c(=O)[nH]1 [Q-1859] | 160 nM | 1 nM | –
46 | Cc1c(C(=O)N2C[C@H]3CCC[C@@H](C2)[C@@H]3CC(F)(F)F)cnn1-c1nn2cccc2c(=O)[nH]1 [Q-1199] | 29 nM | 1 nM | –
47 | Cc1c(C(=O)N2CCN(S(=O)(=O)c3cccc(F)c3)CC2)cnn1-c1nn2cccc2c(=O)[nH]1 [Q-1823] | 110 nM | 1 nM | –
48 | Cc1c(C(=O)N2CCN(c3ncc(-c4ccccc4Cl)o3)CC2)cnn1-c1nn2cccc2c(=O)[nH]1 [Q-1151] | 310 nM | 8 nM | –
49 | Cc1c(C(=O)N2CC3CC(C2)N3C2CCC2)cnn1-c1nn2cccc2c(=O)[nH]1 [Q-1168] | 58 nM | 3 nM | –
50 | Cc1c(C(=O)N2CCN(S(=O)(=O)c3ccccc3C#N)CC2)cnn1-c1nn2cccc2c(=O)[nH]1 [Q-1847] | 64 nM | 1 nM | –
51 | Cc1c(C(=O)N2CCC(O)(C3(C#N)CC3)CC2)cnn1-c1nn2cccc2c(=O)[nH]1 [Q-1092] | 330 nM | 1 nM | –
52 | Cc1c(C(=O)N2CC3CCCC(C2)C3(O)C(F)(F)F)cnn1-c1nn2cccc2c(=O)[nH]1 (stereo not drawn) [Q-1109] | 46 nM | 1 nM | –
53 | CCC(C#N)C1=CCN(C(=O)c2cnn(-c3nc4c(c(=O)[nH]3)CCC4)c2C)CC1 (stereo not drawn) [Q-1103] | 100 nM | 1 nM | –
54 | Cc1c(C(=O)N2CC(c3ccnc(C(F)(F)F)c3)C2)cnn1-c1nn2cccc2c(=O)[nH]1 [Q-2009] | 370 nM | 2 nM | –
55 | Cc1c(C(=O)N2CCCCC2)cnn1-c1nn2cccc2c(=O)[nH]1 [Q-0634] | – | 3 nM | 700 nM
56 | Cc1c(C(=O)N2CCN(C)c3ccccc32)cnn1-c1nc2c(c(=O)[nH]1)CCC2 [Q-0731] | – | 2 nM | 53 nM
57 | Cc1c(C(=O)N2CCC(C3CC3)CC2)cnn1-c1nc2sccc2c(=O)[nH]1 [Q-0700] | – | 2 nM | 100 nM
58 | Cc1c(C(=O)N2CCN(C(=O)OC(C)(C)C)CC2)cnn1-c1nc2c(c(=O)[nH]1)CCC2 [Q-0723] | – | 3 nM | 200 nM
59 | Cc1c(C(=O)N2CCC(c3nc4ccccc4s3)CC2)ccnc1-c1nc2ccsc2c(=O)[nH]1 [Q-0605] | – | 200 nM | 10000 nM
60 | Cc1c(CN2CCCCC2=O)cnn1-c1nc2c(c(=O)[nH]1)CCC2 [Q-0494, 1-[(5-methyl-1-{4-oxo-3H,4H,5H,6H,7H-cyclopenta[d]pyrimidin-2-yl}-1H-pyrazol-4-yL)methyl]piperidin-2-one] | – | 6 nM | 300 nM
61 | Cc1cc(=O)[nH]c(-n2cc(C(=O)N3CCc4ccccc4C3)cn2)n1 [Q-0314] | – | 20 nM | 5800 nM
62 | Cc1c(C(=O)N2CCC3(CC2)CC3c2nnc(-c3ccccc3)o2)cnn1-c1nn2cccc2c(=O)[nH]1 (stereo not drawn) [Q-0696] | – | 4 nM | 400 nM
63 | Cc1c(C(=O)N2CCN(c3cccc(Cl)c3)CC2)cnn1-c1nn2cccc2c(=O)[nH]1 [Q-0830] | – | 1 nM | 41 nM
